Measured values as given in ChEMBL document CHEMBL4002640, “Discovery of MK-1832, a Kv1.5 inhibitor with improved selectivity and pharmacokinetics” (Bioorg Med Chem Lett, 2017).

Experiments:
KCNQ1/KCNE1 (IKs) = KCNQ1/KCNE1 (IKs) (Homo sapiens, UniProt P15382+P51787); experiment: Inhibition of human KCNQ1/KCNE1 expressed in HEK293 cells assessed as reduction in slowly activating delayed rectifier cardiac potassium current at 10 uM by patch clamp electrophysiology method; assay type: cell-based; conditions: HEK293 cells expressing human KCNQ1/KCNE1
[1] = target: T1, Potassium voltage-gated channel subfamily A member 5 (Homo sapiens, UniProt P22460); experiment: Inhibition of Kv1.5 (unknown origin)
[2] = target: T2, Voltage-gated inwardly rectifying potassium channel KCNH2 (Homo sapiens, UniProt Q12809); experiment: Displacement of [3H]-MK499 from human ERG IKr channel expressed in HEK293 cell membranes
Homo sapiens = species: Homo sapiens; experiment: Substrate activity at human P-gp assessed as efflux ratio
[3] = Metabolic stability in human hepatocytes up to 3 hrs by mass spectrometry; assay type: ADME, cell-based, Hepatocyte
[4] = target: T2, Voltage-gated inwardly rectifying potassium channel KCNH2; experiment: Inhibition of human ERG expressed in CHOK1 cells assessed as reduction in rapidly activating delayed rectifier cardiac potassium current by whole-cell voltage-patch clamp assay; assay type: cell-based
Canis familiaris [5] = experiment: Anti-atrial fibrillation activity in iv dosed anesthetized Mongrel dog assessed as increase in atrial refractory period at 400 ms of basic cycle length administered as 60 mins infusion measured up to 60 mins by electrophysiology method; assay type: functional, Canis lupus familiaris
Canis familiaris [6] = experiment: Effect on ventricular refractory period in iv dosed anesthetized Mongrel dog assessed as threshold change in ventricular refractory period at 400 ms of basic cycle length administered as 60 mins infusion measured up to 60 mins by electrophysiology method; assay type: ADME, organism-based, Canis lupus familiaris; conditions: in vivo, 1 h
[7] = target: T1, Potassium voltage-gated channel subfamily A member 5; experiment: Inhibition of Kv1.5 mediated ultra-rapid delayed rectifier current Ikur in human atrial myocytes by voltage-patch clamp electrophysiology method; assay type: cell-based
[8] = target: Voltage-gated potassium channel, IKs; KCNQ1(Kv7.1)/KCNE1(MinK) (Homo sapiens, UniProt P15382+P51787); experiment: Inhibition of human KCNQ1/KCNE1 expressed in HEK293 cells assessed as reduction in slowly activating delayed rectifier cardiac potassium current by patch clamp electrophysiology method; assay type: cell-based
[9] = Selectivity index, ratio of IC50 for human KCNQ1/KCNE1 IKs channel expressed in HEK293 cells to IC50 for Kv1.5 IKur channel in human atrial myocytes
Canis familiaris [10] = experiment: Selectivity index, ratio of compound effect for anti-atrial fibrillation activity in iv dosed anesthetized Mongrel dog assessed as increase in atrial refractory period to compound effect on ventricular refractory period in iv dosed anesthetized Mongrel dog; set-up: species or system Canis lupus familiaris
[11] = target: T3, A-type voltage-gated potassium channel KCND3 (Homo sapiens, UniProt Q9UK17); experiment: Inhibition of Kv4.3 (unknown origin) assessed as reduction in transient outward potassium current by high throughput clamp method
T3 sequence (Q9UK17 whole entry): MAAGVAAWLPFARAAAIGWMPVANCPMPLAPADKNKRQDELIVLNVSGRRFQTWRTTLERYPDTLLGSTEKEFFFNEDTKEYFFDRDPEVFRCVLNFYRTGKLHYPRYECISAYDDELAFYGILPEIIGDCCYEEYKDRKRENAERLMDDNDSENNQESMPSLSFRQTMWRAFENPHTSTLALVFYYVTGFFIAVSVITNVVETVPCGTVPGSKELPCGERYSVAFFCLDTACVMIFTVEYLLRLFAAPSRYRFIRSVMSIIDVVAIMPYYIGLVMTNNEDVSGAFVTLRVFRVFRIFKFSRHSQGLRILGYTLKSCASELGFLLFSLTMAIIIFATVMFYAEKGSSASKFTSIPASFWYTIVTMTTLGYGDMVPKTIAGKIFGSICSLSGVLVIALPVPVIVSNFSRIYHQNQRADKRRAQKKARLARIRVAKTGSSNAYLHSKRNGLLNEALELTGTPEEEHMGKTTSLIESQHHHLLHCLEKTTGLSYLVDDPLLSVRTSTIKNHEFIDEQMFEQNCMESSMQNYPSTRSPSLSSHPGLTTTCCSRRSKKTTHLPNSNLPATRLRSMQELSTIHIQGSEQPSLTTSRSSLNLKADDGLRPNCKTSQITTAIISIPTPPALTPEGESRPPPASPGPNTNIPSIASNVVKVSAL

[12] = target: Sodium channel protein type 5 subunit alpha (Homo sapiens, UniProt Q14524); experiment: Inhibition of SCN5a (unknown origin) assessed as reduction in sodium current at 10 uM by voltage/ion probe reader method
[13] = Drug metabolism in human hepatocytes assessed as oxidation of the ethane at the center up to 3 hrs by mass spectrometry; assay type: ADME, cell-based, Hepatocyte
[14] = Drug metabolism in human hepatocytes assessed as oxidation of the A/B ring nitrogens up to 3 hrs by mass spectrometry; assay type: ADME, cell-based, Hepatocyte

T2 sequence (Q12809 whole entry): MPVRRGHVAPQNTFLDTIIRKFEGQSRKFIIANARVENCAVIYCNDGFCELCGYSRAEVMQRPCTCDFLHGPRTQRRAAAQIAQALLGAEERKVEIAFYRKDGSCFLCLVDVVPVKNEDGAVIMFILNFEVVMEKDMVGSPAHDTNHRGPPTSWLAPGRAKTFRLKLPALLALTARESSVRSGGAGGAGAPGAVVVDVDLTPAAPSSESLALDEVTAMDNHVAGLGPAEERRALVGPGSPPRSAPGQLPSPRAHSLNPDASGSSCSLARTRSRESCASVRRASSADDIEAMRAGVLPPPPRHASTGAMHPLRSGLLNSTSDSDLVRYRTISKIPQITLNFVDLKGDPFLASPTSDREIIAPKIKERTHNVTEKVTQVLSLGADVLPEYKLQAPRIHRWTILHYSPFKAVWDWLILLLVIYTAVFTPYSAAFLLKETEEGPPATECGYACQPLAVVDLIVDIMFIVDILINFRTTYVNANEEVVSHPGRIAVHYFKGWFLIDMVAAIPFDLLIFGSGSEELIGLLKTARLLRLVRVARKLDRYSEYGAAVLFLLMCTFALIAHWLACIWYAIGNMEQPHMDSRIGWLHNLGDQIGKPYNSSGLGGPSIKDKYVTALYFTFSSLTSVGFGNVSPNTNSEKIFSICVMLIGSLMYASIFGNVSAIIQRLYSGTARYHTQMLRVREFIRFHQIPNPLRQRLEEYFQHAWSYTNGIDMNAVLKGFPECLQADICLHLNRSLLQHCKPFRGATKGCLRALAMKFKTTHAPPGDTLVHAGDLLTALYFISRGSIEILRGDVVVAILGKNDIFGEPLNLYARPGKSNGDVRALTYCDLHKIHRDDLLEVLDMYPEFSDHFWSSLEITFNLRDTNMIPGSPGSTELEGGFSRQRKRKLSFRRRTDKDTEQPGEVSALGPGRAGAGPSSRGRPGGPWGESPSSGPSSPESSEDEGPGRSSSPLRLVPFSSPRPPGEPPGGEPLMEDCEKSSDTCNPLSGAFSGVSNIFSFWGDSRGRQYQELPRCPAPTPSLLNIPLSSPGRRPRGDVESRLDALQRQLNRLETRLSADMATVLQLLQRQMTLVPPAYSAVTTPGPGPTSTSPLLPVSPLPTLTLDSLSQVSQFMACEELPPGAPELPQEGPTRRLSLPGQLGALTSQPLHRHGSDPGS
T1 sequence (P22460 whole entry): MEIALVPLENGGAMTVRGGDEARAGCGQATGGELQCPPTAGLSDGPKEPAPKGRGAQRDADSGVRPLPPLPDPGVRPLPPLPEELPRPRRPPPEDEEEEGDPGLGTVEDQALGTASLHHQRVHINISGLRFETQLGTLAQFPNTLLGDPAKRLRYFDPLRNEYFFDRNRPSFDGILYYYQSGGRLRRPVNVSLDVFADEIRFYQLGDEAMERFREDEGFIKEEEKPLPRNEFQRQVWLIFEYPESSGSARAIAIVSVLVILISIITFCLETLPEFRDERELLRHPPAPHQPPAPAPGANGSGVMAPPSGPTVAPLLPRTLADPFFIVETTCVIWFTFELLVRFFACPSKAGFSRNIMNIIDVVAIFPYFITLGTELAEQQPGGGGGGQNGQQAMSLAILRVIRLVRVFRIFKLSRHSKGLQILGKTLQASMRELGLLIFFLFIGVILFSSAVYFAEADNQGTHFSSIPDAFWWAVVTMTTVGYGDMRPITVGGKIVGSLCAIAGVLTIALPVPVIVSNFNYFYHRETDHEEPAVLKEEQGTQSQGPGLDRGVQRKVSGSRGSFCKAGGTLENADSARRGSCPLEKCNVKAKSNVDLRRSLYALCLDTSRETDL
Chain of KCNQ1/KCNE1 (IKs) (P51787 whole entry): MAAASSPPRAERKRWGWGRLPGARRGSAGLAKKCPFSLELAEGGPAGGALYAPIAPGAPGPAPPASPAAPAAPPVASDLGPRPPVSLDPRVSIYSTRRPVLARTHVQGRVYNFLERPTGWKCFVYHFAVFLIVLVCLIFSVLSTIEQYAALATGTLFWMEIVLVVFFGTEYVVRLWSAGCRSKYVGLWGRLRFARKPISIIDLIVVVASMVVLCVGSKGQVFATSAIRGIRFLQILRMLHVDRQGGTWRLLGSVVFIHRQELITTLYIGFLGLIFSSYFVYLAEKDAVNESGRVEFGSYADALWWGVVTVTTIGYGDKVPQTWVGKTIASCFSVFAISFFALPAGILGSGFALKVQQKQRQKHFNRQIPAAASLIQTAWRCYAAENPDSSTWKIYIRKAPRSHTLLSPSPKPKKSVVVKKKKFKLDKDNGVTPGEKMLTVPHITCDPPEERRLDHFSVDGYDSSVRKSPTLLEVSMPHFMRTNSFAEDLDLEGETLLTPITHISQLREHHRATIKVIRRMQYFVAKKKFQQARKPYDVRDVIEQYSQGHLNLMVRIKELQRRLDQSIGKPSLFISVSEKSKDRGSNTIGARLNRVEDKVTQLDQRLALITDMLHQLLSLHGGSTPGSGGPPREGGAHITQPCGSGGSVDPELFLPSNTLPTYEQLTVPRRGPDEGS
Chain of Voltage-gated potassium channel, IKs; KCNQ1(Kv7.1)/KCNE1(MinK) (P51787 whole entry): as the sequence (P51787 whole entry) above

| Compound | inhibition at 10 µM (KCNQ1/KCNE1 (IKs)) [%] | IC50 [1] [nM] | IC50 [2] [nM] | also measured |
| --- | --- | --- | --- | --- |
| c1cncc(C(Cc2ccccc2-c2cncc3ccccc23)c2cccnc2)c1 | 77 | 133 | 12000 |  |
| Nc1cccc(C(c2cccnc2)C(O)c2cccnc2-c2cc(Cl)cc(Cl)c2)n1 (mixture of isomers) | 20 | 153 | > 30000 | Ratio (Homo sapiens): 3.4 |
| FC(F)(F)c1cccc(-c2ncccc2CC(c2cccnc2)c2cccnc2)c1 | 23 | 84 | > 30000 |  |
| c1cncc(-c2ccccc2CC(c2cccnc2)c2cccnc2)c1 | 22 | 64 |  |  |
| N#Cc1cccc(-c2cc(F)ccc2CC(c2cccnc2)c2cccnc2)c1 | 47 | 136 | 10200 | Ratio (Homo sapiens): 0.9 |
| CN(C)C(=O)c1cccc(-c2ncccc2CC(c2ccnc(N)n2)c2cccnc2F)c1 (racemic) | 61 | 161 | > 30000 |  |
| Clc1ccccc1-c1ncccc1CC(c1cccnc1)c1cccnc1Cl (stereo unspecified) | 80 | 26 |  |  |
| COc1cccc(-c2ncccc2CC(c2cccnc2)c2cccnc2)c1 | 15 | 41 |  |  |
| c1ccc(-c2ccccc2CC(c2cccnc2)c2cccnc2)cc1 |  | 1390 | 7620 |  |
| CN(c1cccnc1)c1ncccc1CC(c1cccnc1)c1cccnc1 | 5 | 90 | > 30000 |  |
| OC(c1cccnc1-c1cccc(Cl)c1)C(c1cccnc1)c1cccnc1 (racemic) | 4.1 | 283 | > 30000 |  |
| Clc1ccccc1-c1ncccc1CC(c1cccnc1)c1cccnc1 | 24 | 23 | > 30000 |  |
| CS(=O)(=O)Nc1cccc(-c2cc(F)ccc2CC(c2cccnc2)c2cccnc2)n1 |  | 1590 |  |  |
| Cc1cc(F)ccc1-c1ccccc1C(C#N)C(c1cccnc1)c1cccnc1 (stereo unspecified) | 9.2 | 137 |  |  |
| OC(c1cccnc1-c1cc(Cl)cc(Cl)c1)C(c1cccnc1)c1ccccn1 (mixture of isomers) |  | 233 | > 30000 | Ratio (Homo sapiens): 1.1 |
| Nc1cccc(C(Cc2cccnc2-c2cccc(C(F)(F)F)c2)c2cccnc2)n1 (stereo unspecified) | 42 | 56 |  |  |
| OC(Cc1cccnc1-c1cccc(C(F)(F)F)c1)(c1cccnc1F)c1cccnc1F | 16 | 195 |  | Stability [3]: Stable |
| Fc1ccc(CC(c2cccnc2)c2cccnc2)c(C2CC2)c1 |  | > 10000 |  |  |

| Compound | inhibition at 10 µM (KCNQ1/KCNE1 (IKs)) [%] | IC50 [1] [nM] | IC50 [2] [nM] | also measured |
| --- | --- | --- | --- | --- |
| OC(c1cccnc1-c1cccc(Cl)c1Cl)C(c1cccnc1)c1cccnc1 (racemic) | -3.3 | 110 |  | Ratio (Homo sapiens): 17 |
| CS(=O)(=O)Nc1cccc([C@H](c2ccc(F)cc2)C(c2cccnc2)c2cccnc2)n1 |  | 9 | > 30000 | IC50 [4]: 110000 nM; EC10 (Canis familiaris [5]): 31 nM; Activity (Canis familiaris [6]): 6 to 7 µM; IC50 [7]: 11 nM; IC50 [8]: 790 nM; Stability [3]: Stable; Ratio IC50 [9]: 70; Selectivity Index (Canis familiaris [10]): 210; IC50 [11]: 2300 nM; inhibition (INH) [12]: Not Active |
| CS(=O)(=O)Nc1cccc(-c2cc(F)ccc2CC(c2cccnc2)c2cccnc2)c1 | 42 | 579 |  |  |
| O[C@@H](c1cccnc1-c1cccc(C(F)(F)F)c1)C(c1cccnc1)c1cccnc1 | -14 | 290 | > 30000 | Ratio (Homo sapiens): 7 |
| OC(Cc1cccnc1-c1cc(Cl)cc(Cl)c1)(c1cccnc1)c1cccnc1 | 10 | 84 | > 30000 | Ratio (Homo sapiens): 6.8 |
| CC(=O)NC(c1ccccc1-c1cc(Cl)cc(Cl)c1)C(c1cccnc1)c1cccnc1 (stereo unspecified) | 0.1 | 148 | > 30000 | Ratio (Homo sapiens): 51 |
| FC(F)(F)Oc1cccc(-c2ncccc2CC(c2cccnc2)c2cccnc2)c1 | 67 | 33 | 12700 |  |
| N#Cc1cccc(-c2cccc(Cl)c2CC(c2cccnc2)c2cccnc2)c1 |  | 2860 | 2560 |  |
| Fc1ccc(CC(c2cccnc2)c2cccnc2)c(-c2cccc(C(F)(F)F)c2)c1 |  | 1280 | 2230 |  |
| OC(c1cccnc1-c1cccc(Cl)c1)C(c1cccnc1)c1ncco1 (mixture of isomers) | 16 | 276 |  |  |
| c1cncc(C(Cc2ccccc2-c2ccncc2)c2cccnc2)c1 |  | 444 | 22100 |  |
| Nc1cccc(C(Cc2cccnc2-c2cc(Cl)cc(Cl)c2)c2cccnc2)n1 (stereo unspecified) | 57 | 62 | 10200 |  |
| Fc1ccc(CC(c2cccnc2)c2cccnc2)c(-c2cn[nH]c2)c1 |  | > 10000 |  |  |
| CN(C)C(=O)c1cccc(-c2ccccc2CC(c2cccnc2)c2cccnc2)c1 | 26 | 64 |  |  |
| OC(c1cccnc1-c1ccccc1Cl)C(c1cccnc1)c1cccnc1 (stereo unspecified) | -0.5 |  | > 30000 | Ratio (Homo sapiens): 28 |
| CN(C)C(=O)c1cccc(-c2ccc(F)cc2CC(c2cccnc2)c2cccnc2)c1 |  |  |  | Stability [3]: Unstable; Drug metabolism [13]: Metabolite_Detected; Drug metabolism [14]: Metabolite_Detected |
| Clc1cccc(-c2ncccc2CC(c2cccnc2)c2cccnc2)c1 | 36 | 30 | > 30000 |  |
